Literature values, collected in patent publication US20030207846A1, “Treatment of pain, inflammation, and inflammation-related disorders with a combination of a cyclooxygenase-2 selective inhibitor and aspirin” (Pharmacia Corporation, priority 2002, published 2003).

Legend:
[1] = tested on: platelet aggregation and ex-vivo serum-generated thromboxane B2 production; settings: healthy human subjects
upper GI tract = settings: low-dose 75-300 mg/day

Row | SMILES | tolerability ([1]; alone or in combination with the aspirin) | effect on the anti-platelet effects of aspirin (inhibition of platelet aggregation and ex-vivo serum-generated thromboxane B2 production) ([1]; rofecoxib 50 mg/day with aspirin 81 mg/day) | inhibition of platelet function (platelet function; 40 mg, conditions of limited compliance) | efficacy as an antiplatelet agent (platelet function; 100-300 mg/day, plain or slow release form) | risk of upper GI tract complications (upper GI tract)
1 | CS(=O)(=O)c1ccc(C2=C(c3ccccc3)C(=O)OC2)cc1 [rofecoxib] | well-tolerated | did not alter the anti-platelet effects of the aspirin | – | – | –
2 | CC(=O)Oc1ccccc1C(=O)O [aspirin, 2-(acetyloxy)benzoic acid] | – | – | not sufficient to inhibit platelet function | very effective | increased the risk of upper GI tract complications
